The assay concerns Helix pomatia agglutinin (HPA). In words: Bio-layer interferometry. Type of assay: binding. To be noted: SA and SSA sensors; monovalent reference and negative control. A general note: BLI is a label-free optical method that tracks binding on a fibre tip over time.

Structures are written as SMILES.

For the molecule `CC(=O)N[C@H]1C(O)O[C@H](CO)[C@H](O)[C@@H]1O` (stereo partly shown) [GalNAc], the BLI binding signal result is on record as “no detectable signal”.
